Measured values: patent US8114410B2, “Composition and methods for the inhibition of membrane fusion by paramyxoviruses” (priority 2001, dated 2012)

How the values were obtained:
[1] = system: HeV-mediated fusion (HeLa cells expressing HeV F and G, U373 target cells)
[2] = system: NiV-mediated fusion (HeLa cells expressing NiV F and G, U373 target cells)

## CC[C@H](C)[C@H](NC(=O)[C@H](Cc1ccc(O)cc1)NC(=O)[C@H](CC(=O)O)NC(=O)[C@H](CCCCN)NC(=O)[C@H](CO)NC(=O)[C@H](CCC(N)=O)NC(=O)[C@H](CCC(N)=O)NC(=O)[C@H](CC(C)C)NC(=O)[C@H](CO)NC(=O)[C@H](CCC(N)=O)NC(=O)[C@H](CC(N)=O)NC(=O)[C@H](CCSC)NC(=O)[C@H](CO)NC(=O)[C@H](CO)NC(=O)[C@@H](NC(=O)[C@H](CCC(N)=O)NC(=O)[C@H](CO)NC(=O)[C@H](CO)NC(=O)[C@@H](NC(=O)[C@H](CC(=O)O)NC(=O)[C@@H](NC(=O)[C@H](CCCCN)NC(=O)[C@H](CC(=O)O)NC(=O)[C@@H](NC(=O)[C@H](Cc1ccccc1)NC(=O)[C@@H](NC(=O)[C@@H]1CCCN1C(=O)[C@@H]1CCCN1)C(C)C)[C@@H](C)O)C(C)C)[C@@H](C)CC)[C@@H](C)CC)C(=O)N[C@@H](CCCCN)C(=O)N[C@@H](CCC(=O)O)C(=O)N[C@@H](C)C(=O)N[C@@H](CCC(N)=O)C(=O)N[C@@H](CCCNC(=N)N)C(=O)N[C@@H](CC(C)C)C(=O)N[C@@H](CC(C)C)C(=O)N[C@@H](CC(=O)O)C(=O)N[C@H](C(=O)N[C@H](C(=O)N[C@@H](CC(N)=O)C(=O)N1CCC[C@H]1C(=O)N[C@@H](CO)C(=O)N[C@@H](CC(C)C)C(=O)O)C(C)C)[C@@H](C)O [NiV FC1]
[1]
  IC50: 5.2 to 5.8 nM
  Inhibition of HeV-mediated fusion (in words): completely inhibitory in the nM range
[2]
  IC50: 5.2 to 5.8 nM
  Inhibition of NiV-mediated fusion (in words): completely inhibitory in the nM range
